Several values for one entry are separate records, joined by “and”; a condition that tells them apart may be missing. Equal values may be shown once. Read-outs that look alike come from different tables or passages of the source. Numbered stars: 1 amine (or outer) side, 2 acyl side, 3 side chain; on linkers, the order of the positions; unused ones are H or OH. Bridge positions count the residues as written; N and C are the ends. Square brackets hold non-standard residues; d marks the D form. Peptide text beside a SMILES is read from it. X2 = O=C(O)CCCCCCCCCCCCCCCCCCC(=O)N[C@@H](CCCCNC(=O)CCOCCOCCNC(=O)CCOCCOCCNC(=O)CCC(=O)N(CCNC(=O)C[*:1])CCNC(=O)C[*:2])C(=O)O; X1 = O=C(O)CCCCCCCCCCCCCCCCC(=O)N[C@@H](CCCCNC(=O)CCOCCOCCNC(=O)CCOCCOCCNC(=O)CCC(=O)N(CCNC(=O)C[*:1])CCNC(=O)C[*:2])C(=O)O; Aib = CC(C)(N)C(=O)O
Columns and labels:
human GLP-1R = target: T1, human GLP-1R (Homo sapiens, UniProt P43220); assay: In vitro receptor activation reporter assay (CRE-Luc), HEK293-GLP-1R-CRE; format: cell-based
T1 construct: expressed in transfected cells
T1 sequence (P43220 24-463): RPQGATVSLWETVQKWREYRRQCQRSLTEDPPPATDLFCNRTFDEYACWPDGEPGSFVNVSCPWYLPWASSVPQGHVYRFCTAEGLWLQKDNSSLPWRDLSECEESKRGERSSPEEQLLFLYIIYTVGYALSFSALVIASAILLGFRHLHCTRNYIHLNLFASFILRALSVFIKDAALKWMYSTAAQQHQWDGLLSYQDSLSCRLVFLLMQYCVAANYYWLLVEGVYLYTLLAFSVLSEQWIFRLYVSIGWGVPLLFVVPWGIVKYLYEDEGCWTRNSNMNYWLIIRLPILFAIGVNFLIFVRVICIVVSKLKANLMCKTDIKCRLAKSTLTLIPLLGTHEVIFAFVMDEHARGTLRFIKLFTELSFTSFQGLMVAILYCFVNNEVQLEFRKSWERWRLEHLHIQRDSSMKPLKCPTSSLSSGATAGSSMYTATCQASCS
Protocol: (§1) The EC50 of each peptide was determined using GraphPad Prism 6 software (GraphPad, San Diego, CA).
HEK293 cells were infected with lentivirus encoding firefly luciferase gene under the control of cAMP responsive element (CRE) promoter (Qiagen, The Netherlands) and then were selected using 1 g/mL puromycin (Life Technologies, Carlsbad) for 1 week. The surviving cells (referred to as CRE-HEK293) were expanded and then transfected with a G418 selective mammalian expression plasmid encoding human GLP-1R. In brief, GLP-1R plasmid was transfected into CRE-HEK293 cells using Lipofectamine 2000 and selected with 400 g/mL Geneticin (Life Technologies, Carlsbad, CA). Single colony stable cell line overexpressing CRE-luciferase and GLP1R was then established for in vitro activity assay.

human GIPR = target: T2, human GIPR (Homo sapiens, UniProt P48546); assay: In vitro receptor activation reporter assay (CRE-Luc), HEK293-GIPR-CRE; format: cell-based
T2 construct: expressed in transfected cells
T2 sequence (P48546 22-466): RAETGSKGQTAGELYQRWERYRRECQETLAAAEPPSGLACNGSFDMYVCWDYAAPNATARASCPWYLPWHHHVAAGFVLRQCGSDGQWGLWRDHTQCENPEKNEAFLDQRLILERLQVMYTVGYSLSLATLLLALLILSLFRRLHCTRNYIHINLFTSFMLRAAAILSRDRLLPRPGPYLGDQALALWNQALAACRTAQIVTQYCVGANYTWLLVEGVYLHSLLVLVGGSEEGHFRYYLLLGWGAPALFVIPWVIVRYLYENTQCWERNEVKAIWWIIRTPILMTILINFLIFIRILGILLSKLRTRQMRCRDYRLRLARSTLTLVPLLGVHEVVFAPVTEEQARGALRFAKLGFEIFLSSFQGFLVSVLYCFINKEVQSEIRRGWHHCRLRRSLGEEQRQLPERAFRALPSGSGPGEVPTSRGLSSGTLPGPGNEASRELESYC
Description: HEK293 cells were infected with lentivirus encoding firefly luciferase gene under the control of cAMP responsive element (CRE) promoter (Qiagen, The Netherlands) and then were selected using 1 g mL^−1 puromycin (Life Technologies, Carlsbad) for 1 week. The surviving cells (referred to as CRE-HEK293) were expanded and then transfected with a G418 selective mammalian expression plasmid encoding human GLP-1R or GIPR. In brief, GLP-1R or GIPR plasmid was transfected into CRE-HEK293 cells using Lipofectamine 2000 and selected with 400 g mL^−1 Geneticin (Life Technologies, Carlsbad, CA). Single colony stable cell line overexpressing CRE-luciferase and GLP-1R or GIPR (HEK293-GLP-1R-CRE or HEK293-GIPR-CRE) was then established for in vitro activity assay.
as §1

[1] = Pharmacokinetics in CD-1 mouse, plasma concentration by LC-MS; format: in vivo; conditions: individual animals
Protocol: The peptide plasma concentration at various time points was determined using LC-MS.

[2] = Table 8, read-out: EC50 [nM] GLP1R
[3] = Table 8, read-out: EC50 [nM] GIPR

## CC[C@H](C)[C@H](NC(=O)[C@H](CC(C)C)NC(=O)[C@H](Cc1c[nH]c2ccccc12)NC(=O)[C@@H]1CSCC(=O)NCCN(C(=O)CCC(=O)NCCOCCOCCC(=O)NCCOCCOCCC(=O)NCCCC[C@H](NC(=O)CCCCCCCCCCCCCCCCCCC(=O)O)C(=O)O)CCNC(=O)CSC[C@H](NC(=O)[C@H](CCCCN)NC(=O)[C@H](CC(=O)O)NC(=O)[C@H](CC(C)C)NC(=O)[C@H](Cc2ccc(O)cc2)NC(=O)[C@@H](NC(=O)[C@H](CO)NC(=O)[C@H](Cc2ccc(O)cc2)NC(=O)[C@H](CC(=O)O)NC(=O)[C@H](CC(N)=O)NC(=O)[C@@H](NC(=O)[C@H](Cc2ccc(O)cc2)NC(=O)[C@@H](NC(=O)CNC(=O)[C@H](CCC(=O)O)NC(=O)C(C)(C)NC(=O)[C@@H](N)Cc2ccc(O)cc2)[C@@H](C)O)[C@@H](C)O)[C@@H](C)CC)C(=O)N[C@@H](C)C(=O)N[C@@H](C)C(=O)NC(C)(C)C(=O)N[C@@H](CCC(=O)O)C(=O)N[C@@H](Cc2ccccc2)C(=O)N[C@@H](C(C)C)C(=O)N1)C(=O)N[C@@H](C)C(=O)NCC(=O)NCC(=O)N1CCC[C@H]1C(=O)N[C@@H](CO)C(=O)N[C@@H](CO)C(=O)NCC(=O)N[C@@H](C)C(=O)N1CCC[C@H]1C(=O)N1CCC[C@H]1C(=O)N1CCC[C@H]1C(=O)N[C@@H](CO)C(N)=O [6Y, 8N, 27I, C(17-24) - C20L5A, YAibEGT-YTNDY-SIYLD-KXAAAib-EFVXW-LIAGG-PSSGA-PPPS-NH2 (where each X is C)] (H-Y[Aib]EGTYTNDYSIYLDKCAA[Aib]EFVCWLIAGGPSSGAPPPS-NH2; linker 17-24 via X2)
Human GLP-1R; unnumbered table (Table 10), average of runs, read-out: GLP1R (nM) [EC50] average
  EC50: 0.08 nM
Human GLP-1R; unnumbered table (Table 10), run 02/19, read-out: GLP1R (nM) [EC50] 02/19
  EC50: 0.06 nM
Human GLP-1R; unnumbered table (Table 10), run 3/25, read-out: GLP1R (nM) [EC50] 3/25
  EC50: 0.11 nM
Human GLP-1R; unnumbered table (Table 10), run 03/26, read-out: GLP1R (nM) [EC50] 03/26
  EC50: 0.07 nM
Human GIPR; unnumbered table (Table 10), average of runs, read-out: GIPR (nM) [EC50] average
  EC50: 2.88 nM
Human GIPR; unnumbered table (Table 10), run 02/19, read-out: GIPR (nM) [EC50] 02/19
  EC50: 2.48 nM
Human GIPR; unnumbered table (Table 10), run 03/26, read-out: GIPR (nM) [EC50] 03/26
  EC50: 3.29 nM

## CC[C@H](C)[C@H](NC(=O)[C@H](CC(C)C)NC(=O)[C@H](Cc1c[nH]c2ccccc12)NC(=O)[C@H](CC(N)=O)NC(=O)[C@@H](NC(=O)[C@H](Cc1ccccc1)NC(=O)[C@@H]1CSCC(=O)NCCN(C(=O)CCC(=O)NCCOCCOCCC(=O)NCCOCCOCCC(=O)NCCCC[C@H](NC(=O)CCCCCCCCCCCCCCCCC(=O)O)C(=O)O)CCNC(=O)CSC[C@H](NC(=O)[C@H](Cc2ccc(O)cc2)NC(=O)[C@@H](NC(=O)[C@H](CO)NC(=O)[C@@H](NC(=O)[C@H](CC(=O)O)NC(=O)[C@H](CO)NC(=O)[C@@H](NC(=O)[C@H](Cc2ccccc2)NC(=O)[C@@H](NC(=O)CNC(=O)[C@H](CCC(=O)O)NC(=O)C(C)(C)NC(=O)[C@@H](N)Cc2ccc(O)cc2)[C@@H](C)O)[C@@H](C)CC)C(C)C)[C@@H](C)CC)C(=O)N[C@@H](CC(=O)O)C(=O)N[C@@H](CCCCN)C(=O)N[C@@H](CCC(N)=O)C(=O)N[C@@H](C)C(=O)N[C@@H](C)C(=O)NC(C)(C)C(=O)N1)C(C)C)C(=O)N[C@@H](C)C(=O)NCC(=O)NCC(=O)N1CCC[C@H]1C(=O)N[C@@H](CO)C(=O)N[C@@H](CO)C(=O)NCC(=O)N[C@@H](C)C(=O)N1CCC[C@H]1C(=O)N1CCC[C@H]1C(=O)N1CCC[C@H]1C(=O)N[C@@H](CO)C(N)=O [7I, 10V, 27I, C(14-21) - L5A, YAibEGT-FISDV-SIYXD-KQAAAib-XFVNW-LIAGG-PSSGA-PPPS-NH2 (where each X is C)] (H-Y[Aib]EGTFISDVSIYCDKQAA[Aib]CFVNWLIAGGPSSGAPPPS-NH2; linker 14-21 via X1)
Human GLP-1R; [2]
  EC50: 83.9 nM
Human GIPR; [3]
  EC50: 12.5 nM

## CC[C@H](C)[C@H](NC(=O)[C@H](CC(C)C)NC(=O)[C@H](Cc1c[nH]c2ccccc12)NC(=O)[C@H](CC(N)=O)NC(=O)[C@@H](NC(=O)[C@H](Cc1ccccc1)NC(=O)[C@@H]1CSCC(=O)NCCN(C(=O)CCC(=O)NCCOCCOCCC(=O)NCCOCCOCCC(=O)NCCCC[C@H](NC(=O)CCCCCCCCCCCCCCCCC(=O)O)C(=O)O)CCNC(=O)CSC[C@H](NC(=O)[C@H](Cc2ccc(O)cc2)NC(=O)[C@@H](NC(=O)[C@H](CO)NC(=O)[C@H](Cc2ccc(O)cc2)NC(=O)[C@H](CC(=O)O)NC(=O)[C@H](CO)NC(=O)[C@@H](NC(=O)[C@H](Cc2ccccc2)NC(=O)[C@@H](NC(=O)CNC(=O)[C@H](CCC(=O)O)NC(=O)C(C)(C)NC(=O)[C@@H](N)Cc2ccc(O)cc2)[C@@H](C)O)[C@@H](C)O)[C@@H](C)CC)C(=O)N[C@@H](CC(=O)O)C(=O)N[C@@H](CCCCN)C(=O)N[C@@H](CCC(N)=O)C(=O)N[C@@H](C)C(=O)N[C@@H](C)C(=O)NC(C)(C)C(=O)N1)C(C)C)C(=O)N[C@@H](C)C(=O)NCC(=O)NCC(=O)N1CCC[C@H]1C(=O)N[C@@H](CO)C(=O)N[C@@H](CO)C(=O)NCC(=O)N[C@@H](C)C(=O)N1CCC[C@H]1C(=O)N1CCC[C@H]1C(=O)N1CCC[C@H]1C(=O)N[C@@H](CO)C(N)=O [mCMZ370, YAibEGT-FTSDY-SIYXD-KQAAAib-XFVNW-LIAGG-PSSGA-PPPS-NH2 (where each X is C)]
[1]; 1 mg/kg I.V.
  Tlast: 72 h
[1]; 1 mg/kg I.V., 1 mg/kg
  AUC—%Extrap—pred: 0.39% and 0.38% and 0.6%
  Cl—pred: 0.162 mL/min/kg
  Vz—pred: 0.099 L/kg
[1]; 1 mg/kg S.C.
  Tlast: 72 h
[1]; 1 mg/kg S.C., 1 mg/kg
  AUC—%Extrap—pred: 0.26% and 0.31% and 0.19%
  AUMC—%Extrap—pred: 0.99%
  Cl—Fpred: 0.24 mL/min/kg and 0.21 mL/min/kg and 0.06 mL/min/kg
  V—F—pred: 0.2 L/kg and 0.15 L/kg and 0.13 L/kg
[1]; mouse, in vivo, iv, 1 mg/kg, 1 mg/kg I.V., read-out: Cl—pred
  clearance: 0.112 mL/min/kg

## CC[C@H](C)[C@H](NC(=O)[C@H](CC(C)C)NC(=O)[C@H](Cc1c[nH]c2ccccc12)NC(=O)[C@H](CC(N)=O)NC(=O)[C@@H](NC(=O)[C@H](Cc1ccccc1)NC(=O)[C@@H]1CSCC(=O)NCCN(C(=O)CCC(=O)NCCOCCOCCC(=O)NCCOCCOCCC(=O)NCCCC[C@H](NC(=O)CCCCCCCCCCCCCCCCCCC(=O)O)C(=O)O)CCNC(=O)CSC[C@H](NC(=O)[C@H](Cc2ccc(O)cc2)NC(=O)[C@@H](NC(=O)[C@H](CO)NC(=O)[C@H](Cc2ccc(O)cc2)NC(=O)[C@H](CC(=O)O)NC(=O)[C@H](CO)NC(=O)[C@@H](NC(=O)[C@H](Cc2ccc(O)cc2)NC(=O)[C@@H](NC(=O)CNC(=O)[C@H](CCC(=O)O)NC(=O)C(C)(C)NC(=O)[C@@H](N)Cc2ccc(O)cc2)[C@@H](C)O)[C@@H](C)O)[C@@H](C)CC)C(=O)N[C@@H](CC(=O)O)C(=O)N[C@@H](CCCCN)C(=O)N[C@@H](CCC(N)=O)C(=O)N[C@@H](C)C(=O)N[C@@H](C)C(=O)NC(C)(C)C(=O)N1)C(C)C)C(=O)N[C@@H](C)C(=O)NCC(=O)NCC(=O)N1CCC[C@H]1C(=O)N[C@@H](CO)C(=O)N[C@@H](CO)C(=O)NCC(=O)N[C@@H](C)C(=O)N1CCC[C@H]1C(=O)N1CCC[C@H]1C(=O)N1CCC[C@H]1C(=O)N[C@@H](CO)C(N)=O [6Y, 271, C(14-21) - C20L5A, YAibEGT-YTSDY-SIYXD-KQAAAib-XFVNW-LIAGG-PSSGA-PPPS-NH2 (where each X is C)] (H-Y[Aib]EGTYTSDYSIYCDKQAA[Aib]CFVNWLIAGGPSSGAPPPS-NH2; linker 14-21 via X2)
Human GLP-1R; GLP1R (nM) [EC50] 02/19, unnumbered table (Table 10), run 02/19
  EC50: 0.04 nM
Human GLP-1R; GLP1R (nM) [EC50] 3/25, unnumbered table (Table 10), run 3/25
  EC50: 0.07 nM
Human GLP-1R; GLP1R (nM) [EC50] 03/26, unnumbered table (Table 10), run 03/26
  EC50: 0.07 nM
Human GLP-1R; GLP1R (nM) [EC50] average, unnumbered table (Table 10), average of runs
  EC50: 0.06 nM
Human GIPR; GIPR (nM) [EC50] 02/19, unnumbered table (Table 10), run 02/19
  EC50: 0.5 nM

## CC[C@H](C)[C@H](NC(=O)[C@H](CC(C)C)NC(=O)[C@H](Cc1c[nH]c2ccccc12)NC(=O)[C@H](CC(N)=O)NC(=O)[C@@H](NC(=O)[C@H](Cc1ccccc1)NC(=O)[C@@H]1CSCC(=O)NCCN(C(=O)CCC(=O)NCCOCCOCCC(=O)NCCOCCOCCC(=O)NCCCC[C@H](NC(=O)CCCCCCCCCCCCCCCCCCC(=O)O)C(=O)O)CCNC(=O)CSC[C@H](NC(=O)[C@H](Cc2ccc(O)cc2)NC(=O)[C@@H](NC(=O)[C@H](CO)NC(=O)[C@@H](NC(=O)[C@H](CC(=O)O)NC(=O)[C@H](CO)NC(=O)[C@@H](NC(=O)[C@H](Cc2ccccc2)NC(=O)[C@@H](NC(=O)CNC(=O)[C@H](CCC(=O)O)NC(=O)C(C)(C)NC(=O)[C@@H](N)Cc2ccc(O)cc2)[C@@H](C)O)[C@@H](C)CC)C(C)C)[C@@H](C)CC)C(=O)N[C@@H](CC(=O)O)C(=O)N[C@@H](CCCCN)C(=O)N[C@@H](CCC(N)=O)C(=O)N[C@@H](C)C(=O)N[C@@H](C)C(=O)NC(C)(C)C(=O)N1)C(C)C)C(=O)N[C@@H](C)C(=O)NCC(=O)NCC(=O)N1CCC[C@H]1C(=O)N[C@@H](CO)C(=O)N[C@@H](CO)C(=O)NCC(=O)N[C@@H](C)C(=O)N1CCC[C@H]1C(=O)N1CCC[C@H]1C(=O)N1CCC[C@H]1C(=O)N[C@@H](CO)C(N)=O [7I, 10V, 27I, C(14-21) - C20L5A, YAibEGT-FISDV-SIYXD-KQAAAib-XFVNW-LIAGG-PSSGA-PPPS-NH2 (where each X is C)] (H-Y[Aib]EGTFISDVSIYCDKQAA[Aib]CFVNWLIAGGPSSGAPPPS-NH2; linker 14-21 via X2)
Human GLP-1R; [2]
  EC50: ~13700 nM
Human GIPR; [3]
  EC50: 303 nM

From patent publication US20250320252A1 (The Scripps Research Institute, priority 2021, published 2025)
